For this assay, the target named is T1, Human complement C1s enzyme (Homo sapiens, UniProt P09871).
T1 construct: purified from human serum, Complement Technology, Inc; purchased Complement Technology, Inc; host or cells: human serum
T1 sequence (P09871 438-688 limits assumed): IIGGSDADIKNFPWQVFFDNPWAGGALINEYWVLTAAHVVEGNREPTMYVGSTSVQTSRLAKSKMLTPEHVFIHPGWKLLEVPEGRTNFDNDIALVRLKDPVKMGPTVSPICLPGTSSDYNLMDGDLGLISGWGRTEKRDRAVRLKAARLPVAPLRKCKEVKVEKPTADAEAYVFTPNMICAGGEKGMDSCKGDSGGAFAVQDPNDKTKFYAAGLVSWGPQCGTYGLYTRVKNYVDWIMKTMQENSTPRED
T1 sequence (P09871 16-437 partner limits assumed): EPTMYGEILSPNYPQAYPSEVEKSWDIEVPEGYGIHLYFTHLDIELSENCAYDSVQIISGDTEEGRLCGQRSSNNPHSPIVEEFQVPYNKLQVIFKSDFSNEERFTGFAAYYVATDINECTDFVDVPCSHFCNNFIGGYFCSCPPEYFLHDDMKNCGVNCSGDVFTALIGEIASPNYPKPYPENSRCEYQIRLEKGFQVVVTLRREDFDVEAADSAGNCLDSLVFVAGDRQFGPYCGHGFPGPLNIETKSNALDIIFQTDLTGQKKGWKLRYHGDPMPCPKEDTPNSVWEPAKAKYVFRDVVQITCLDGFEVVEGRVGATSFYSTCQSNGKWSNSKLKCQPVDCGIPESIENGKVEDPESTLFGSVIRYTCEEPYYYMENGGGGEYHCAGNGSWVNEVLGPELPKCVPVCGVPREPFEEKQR
The experiment in a line: Human C1s Enzyme Assay. Format: biochemical. Particulars: human C1s 1.16 nM, 5 min preincubation, substrate Z-L-Lys-SBzl 100 μM, A405; read-out: C1s Protease Activity. Put shortly: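 C1s purified from human serum (1.16 nM final) was preincubated with compound for 5 min at room temperature in 50 mM Tris, 1 M NaCl, pH 7.5. Z-L-Lys-SBzl and DTNB were then added at 100 μM each, and A405 was followed for 30 min. IC50 came from nonlinear regression of reaction rates.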
Take `CC(CCOc1ccccc1)C(=O)NCC(=O)N1CC2(C[C@H]1C(=O)NCc1cc(C(=N)N)cs1)OCCO2` (stereo partly drawn) [Compound 88, (8S)-N-((4-carbamimidoylthiophen-2-yl)methyl)-7-((2-methyl-4-phenoxybutanoyl)glycyl)-1,4-dioxa-7-azaspiro[4.4]nonane-8-carboxamide]: the IC50 is under 100 nM. Under `N=C(N)c1csc(CNC(=O)[C@@H]2CC(=C(F)F)CN2C(=O)CNC(=O)CCCOc2ccccc2)c1` [Compound 26, (S)-N-((4-carbamimidoylthiophen-2-yl)methyl)-4-(difluoromethylene)-1-((4-phenoxy-butanoyl)glycyl)pyrrolidine-2-carboxamide] stands under 100 nM; under `C[C@@]12C[C@@H]1N(C(=O)CNC(=O)CCCOc1ccc(S(F)(F)(F)(F)F)cc1)[C@H](C(=O)NCc1cc(C(=N)N)cs1)C2` [Compound 96, (1S,3S,5S)-N-((4-carbamimidoylthiophen-2-yl)methyl)-5-methyl-2-((4-(4-(pentafluoro-λ^6-sulfanyl)phenoxy)butanoyl)glycyl)-2-azabicyclo[3.1.0]hexane-3-carboxamide], under 100 nM; under `N=C(N)c1csc(CNC(=O)[C@@H]2C[C@@H](C(F)F)CN2C(=O)CNC(=O)CCCOc2ccccc2)c1` [Compound 147, (2S,4R)-N-((4-carbamimidoylthiophen-2-yl)methyl)-4-(difluoromethyl)-1-((4-phenoxybutanoyl)glycyl)pyrrolidine-2-carboxamide], 100 to 1000 nM. As for `Cc1ccccc1[C@H]1C[C@@H](C(=O)NCc2cc(C(=N)N)cs2)N(C(=O)CNC(=O)CCCOc2ccccc2)C1` [Compound 150], the figure is under 100 nM; as for `CN/C(=N/C#N)c1csc(CNC(=O)[C@@H]2C[C@]3(C)C[C@@H]3N2C(=O)CNC(=O)c2ccc(Oc3ccccc3)cc2)c1` [Compound 236, (1S,3S,5S)-N-((4-((E)-N′-cyano-N-methylcarbamimidoyl)thiophen-2-yl)methyl)-5-methyl-2-((4-phenoxybenzoyl)glycyl)-2-azabicyclo[3.1.0]hexane-3-carboxamide], over 1000 nM. Under `C[C@@H](C(=O)NCc1cc(C(=N)N)cs1)N(C)C(=O)CNC(=O)c1ccc(Oc2ccccc2)cc1` [Compound 126, (S)-N-(2-((1-(((4-carbamimidoylthiophen-2-yl)methyl)amino)-1-oxopropan-2-yl)(methyl)amino)-2-oxoethyl)-4-phenoxybenzamide] stands under 100 nM; under `N=C(N)c1csc(CNC(=O)[C@@H]2C[C@]3(CCO3)CN2C(=O)CNC(=O)c2ccc(Oc3ccccc3)cc2)c1` [Compound 195, (4S,7S)-N-((4-carbamimidoylthiophen-2-yl)methyl)-6-((4-phenoxybenzoyl)glycyl)-1-oxa-6-azaspiro[3.4]octane-7-carboxamide], under 100 nM; under `N=C(N)c1csc(CNC(=O)[C@@H]2[C@H](O)[C@@H](F)CN2C(=O)CNC(=O)CCCOc2ccccc2)c1` [Compound 128, (2S,3S,4S)-N-((4-carbamimidoylthiophen-2-yl)methyl)-4-fluoro-3-hydroxy-1-((4-phenoxybutanoyl)glycyl)pyrrolidine-2-carboxamide], under 100 nM.

For `N=C(N)c1csc(CNC(=O)[C@@H]2C[C@H](C(F)F)CN2C(=O)CNC(=O)c2ccc(Oc3ccccc3)cc2)c1` [Compound 51, (2S,4S)-N-((4-carbamimidoylthiophen-2-yl)methyl)-4-(difluoromethyl)-1-((4-phenoxybenzoyl)glycyl)pyrrolidine-2-carboxamide], the IC50 was under 100 nM. Turning to `N=C(N)c1csc(CNC(=O)[C@@H]2C[C@@H](c3ccccc3)CN2C(=O)CNC(=O)CCCOc2ccccc2)c1` [Compound 156, (2S,4S)-N-((4-carbamimidoylthiophen-2-yl)methyl)-1-((4-phenoxybutanoyl)glycyl)-4-phenylpyrrolidine-2-carboxamide], the IC50 was under 100 nM.

`Cc1sc(CNC(=O)[C@@H]2C[C@]3(C)C[C@@H]3N2C(=O)CNC(=O)CCCOc2ccccc2)cc1C(=N)N` [Compound 216, (1S,3S,5S)-N-((4-carbamimidoyl-5-methylthiophen-2-yl)methyl)-5-methyl-2-((4-phenoxybutanoyl)glycyl)-2-azabicyclo[3.1.0]hexane-3-carboxamide]: the IC50 was over 1000 nM. Under `C[C@@H](NC(=O)[C@@H]1C[C@]2(C)C[C@@H]2N1C(=O)CNC(=O)CCCCc1ccccc1)c1cc(C(=N)N)cs1` [Compound 130, (1S,3S,5S)-N-((R)-1-(4-carbamimidoylthiophen-2-yl)ethyl)-5-methyl-2-((5-phenyl-pentanoyl)glycyl)-2-azabicyclo[3.1.0]hexane-3-carboxamide] stands under 100 nM. Under `C[C@@H](NC(=O)[C@@H]1CC2(CN1C(=O)CNC(=O)CCCOc1ccc(F)cc1)OCCO2)c1cc(C(=N)N)cs1` [Compound 104, (S)-N-((R)-1-(4-carbamimidoylthiophen-2-yl)ethyl)-7-((4-(4-fluorophenoxy)butanoyl)-glycyl)-1,4-dioxa-7-azaspiro[4.4]nonane-8-carboxamide] stands under 100 nM. As for `C[C@@H](NC(=O)[C@@H]1CC2(CN1C(=O)CNC(=O)c1ccccc1)OCCO2)c1cc(C(=N)N)cs1` [Compound 264, (S)-7-(benzoylglycyl)-N-((R)-1-(4-carbamimidoylthiophen-2-yl)ethyl)-1,4-dioxa-7-azaspiro[4.4]nonane-8-carboxamide], the figure is under 100 nM.

With `N=C(N)c1csc(CNC(=O)[C@@H]2CC3(CN2C(=O)CNC(=O)CCCOc2ccc(C4CC4)cc2)OCCO3)c1` [Compound 208, (S)-N-((4-carbamimidoylthiophen-2-yl)methyl)-7-((4-(4-cyclopropylphenoxy)butanoyl)glycyl)-1,4-dioxa-7-azaspiro[4.4]nonane-8-carboxamide], the IC50 is under 100 nM. As for `N=C(N)c1csc(CNC(=O)[C@@H]2C[C@](F)(CO)CN2C(=O)CNC(=O)CCCOc2ccccc2)c1` [Compound 66, (2S,4R)-N-((4-carbamimidoylthiophen-2-yl)methyl)-4-fluoro-4-(hydroxymethyl)-1-((4-phenoxybutanoyl)glycyl)pyrrolidine-2-carboxamide], the figure is under 100 nM. Under `C[C@@]12C[C@@H]1N(C(=O)CN1CCc3cc(Oc4ccccc4)ccc3C1=O)[C@H](C(=O)NCc1cc(C(=N)N)cs1)C2` [Compound 161, (1S,3S,5S)-N-((4-carbamimidoylthiophen-2-yl)methyl)-5-methyl-2-(2-(1-oxo-6-phenoxy-3,4-dihydroisoquinolin-2(1H)-yl)acetyl)-2-azabicyclo[3.1.0]hexane-3-carboxamide] stands under 100 nM; under `N=C(N)c1csc(CNC(=O)[C@@H]2C[C@@H](Oc3ccccc3)CN2C(=O)CNC(=O)CCCOc2ccccc2)c1` [Compound 69, (2S,4R)-N-((4-carbamimidoylthiophen-2-yl)methyl)-4-phenoxy-1-((4-phenoxy-butanoyl)glycyl)pyrrolidine-2-carboxamide], under 100 nM; under `C[C@@H](NC(=O)[C@@H]1CC2(CN1C(=O)CNC(=O)CCCOc1ccccc1)OCCO2)c1ccc(C(=N)N)s1` [Compound 133, (S)-N-((R)-1-(5-carbamimidoylthiophen-2-yl)ethyl)-7-((4-phenoxybutanoyl)glycyl)-1,4-dioxa-7-azaspiro[4.4]nonane-8-carboxamide], under 100 nM. In the case of `CC(=O)O/N=C(\N)c1csc(CNC(=O)[C@@H]2C[C@]3(C)C[C@@H]3N2C(=O)CN(C[C@H](O)[C@H](O)[C@@H](O)[C@H](C)O)C(=O)OC(C)(C)C)c1` [Compound 25, tert-butyl (2-((1S,3S,5S)-3-(((4-(N-acetoxycarbamimidoyl)thiophen-2-yl)methyl)-carbamoyl)-5-methyl-2-azabicyclo[3.1.0]hexan-2-yl)-2-oxoethyl)((2S,3S,4S,5S)-2,3,4,5-tetrahydroxyhexyl)carbamate], the IC50 is over 1000 nM. Under `C[C@@H](NC(=O)[C@@H]1C[C@]2(C)C[C@@H]2N1C(=O)CNC(=O)CCCOc1ccc(F)cc1)c1cc(C(=N)N)cs1` [Compound 121, (1S,3S,5S)-N-((R)-1-(4-carbamimidoylthiophen-2-yl)ethyl)-2-((4-(4-fluorophenoxy)butanoyl)glycyl)-5-methyl-2-azabicyclo[3.1.0]hexane-3-carboxamide] stands 100 to 1000 nM; under `CC(COc1ccccc1)CC(=O)NCC(=O)N1CC2(C[C@H]1C(=O)NCc1cc(C(=N)N)cs1)OCCO2` (stereo partly drawn) [Compound 70, (8S)-N-((4-carbamimidoylthiophen-2-yl)methyl)-7-((3-methyl-4-phenoxybutanoyl)glycyl)-1,4-dioxa-7-azaspiro[4.4]nonane-8-carboxamide], under 100 nM; under `COC(=O)C(NC(=O)[C@@H]1C[C@@H](OC(F)F)CN1C(=O)CNC(=O)c1ccc(Oc2ccccc2)cc1)c1cc(C(=N)N)cs1` (stereo partly drawn) [Compound 189, methyl 2-(4-carbamimidoylthiophen-2-yl)-2-((2S,4R)-4-(difluoromethoxy)-1-((4-phenoxybenzoyl)glycyl)pyrrolidine-2-carboxamido)acetate], over 1000 nM.

Source of the values: patent US20250171423A1, “PHARMACEUTICAL COMPOUNDS FOR THE TREATMENT OF COMPLEMENT MEDIATED DISORDERS” (Achillion Pharmaceuticals, Inc., priority 2020, published 2025).
